Test results from the NIST ThermoML archive (doi:10.1021/acs.jced.8b00585).
± gives the expanded uncertainty stated by the source.

Conditions: Liquid; for Critical pressure: Direct measurement; for Critical temperature: Visual observation in an unstirred cell

Critical pressure [kPa] | Critical temperature [K] | SMILES
2278 ± 16 | 594.5 ± 0.4 | CCCCCCCCC [nonane]
3033 ± 18 | 507.8 ± 0.4 | CCCCCC [hexane]
2106 ± 15 | 617.7 ± 0.4 | CCCCCCCCCC [decane]
4406 ± 22 | 563 ± 0.4 | CCCCO [butan-1-ol]
2496 ± 16 | 568.9 ± 0.4 | CCCCCCCC [octane]
2736 ± 17 | 540.1 ± 0.4 | CCCCCCC [heptane]
